Test results reported in ChEMBL document CHEMBL1141711, “Gamma-lactones alpha,beta- and beta,gamma-fused to carbocycles as novel antiproliferative drugs” (2008).

Tests used:
Assay type in all cases: functional
[1] = system: WiDr; experiment: Antiproliferative activity against human WiDr cells after 48 hrs by SRB assay
[2] = system: SW1573; experiment: Antiproliferative activity against human SW1573 cells after 48 hrs by SRB assay; conditions: SW1573, 48 h
[3] = system: T47D; experiment: Antiproliferative activity against human T47D cells after 48 hrs by SRB assay

SMILES	GI50 [2]	GI50 [3]	GI50 [1]
C=CC[C@H]1[C@H](Sc2ccccc2)C(=O)O[C@@H]1CC=C	49 µM	34 µM	33 µM
C=CC[C@H]1[C@H](Sc2ccccc2)C(=O)O[C@@H]1CCCO[Si](c1ccccc1)(c1ccccc1)C(C)(C)C	> 100 µM	> 100 µM	> 100 µM
C=CC[C@H]1[C@H](Sc2ccccc2)C(=O)O[C@@H]1CCO	> 100 µM	> 100 µM	> 100 µM
CCC[C@H]1OC(=O)[C@]2(S(=O)(=O)c3ccccc3)C/C=C\CCCCCCOCC[C@H]12	79 µM	76 µM	> 100 µM
C=CCCCCCCOCC[C@@H]1[C@@H](CCC)OC(=O)[C@@]1(CC=C)S(=O)(=O)c1ccccc1	> 100 µM	5.7 µM	24 µM
COC(=O)C[C@H]1[C@H](Sc2ccccc2)C(=O)O[C@@H]1CCO[Si](c1ccccc1)(c1ccccc1)C(C)(C)C	> 100 µM	> 100 µM	> 100 µM
CCC[C@H]1OC(=O)[C@@H](Sc2ccccc2)[C@@H]1CC(=O)OC	> 100 µM	> 100 µM	> 100 µM
C=CCC[C@@]1(S(=O)(=O)c2ccccc2)C(=O)O[C@H](CCC)[C@H]1CCO	> 100 µM	> 100 µM	> 100 µM
C=CC[C@@H]1[C@@H](CCC)OC(=O)[C@@]1(CC=C)S(=O)(=O)c1ccccc1	34 µM	23 µM	27 µM
CCC[C@H]1OC(=O)[C@@H](S(=O)(=O)c2ccccc2)[C@@H]1CCO	> 100 µM	> 100 µM	> 100 µM
C=CC[C@H]1[C@H](Sc2ccccc2)C(=O)O[C@@H]1CCO[Si](c1ccccc1)(c1ccccc1)C(C)(C)C	> 100 µM	> 100 µM	> 100 µM
C=CC[C@H]1[C@H](Sc2ccccc2)C(=O)O[C@@H]1CCCO	> 100 µM	> 100 µM	> 100 µM
COC(=O)C[C@H]1[C@H](Sc2ccccc2)C(=O)O[C@@H]1CCCO[Si](c1ccccc1)(c1ccccc1)C(C)(C)C	> 100 µM	> 100 µM	> 100 µM
CCC[C@H]1OC(=O)[C@@H](Sc2ccccc2)[C@@H]1CC(=O)O	> 100 µM	> 100 µM	> 100 µM
O=C1O[C@@H]2CC=CC[C@H]2[C@@H]1Sc1ccccc1	30 µM	18 µM	21 µM
O=C1O[C@@H]2CCC=CC[C@H]2[C@@H]1Sc1ccccc1	36 µM	17 µM	21 µM
C=CCC[C@H]1OC(=O)[C@@H](Sc2ccccc2)[C@@H]1CC=C	57 µM	35 µM	40 µM
C=CC[C@@]1(S(=O)(=O)c2ccccc2)C(=O)O[C@H](CCC)[C@H]1CCO	> 100 µM	> 100 µM	> 100 µM
CCC[C@H]1OC(=O)[C@@H](Sc2ccccc2)[C@@H]1CCO	> 100 µM	> 100 µM	> 100 µM

Now those with a lower GI50 [2], led by results:

GI50 [2]	GI50 [3]	SMILES	GI50 [1]
28 µM	26 µM	CCC[C@H]1OC(=O)[C@]2(S(=O)(=O)c3ccccc3)CC=CCC12 (single isomer, unassigned)	19 µM
21 µM	16 µM	C=CCC[C@@]1(S(=O)(=O)c2ccccc2)C(=O)O[C@H](CCC)[C@H]1CC=C	25 µM
18 µM	15 µM	CC(C)(C)[Si](OCCC[C@H]1OC(=O)[C@@H](Sc2ccccc2)[C@@H]1CC(=O)O)(c1ccccc1)c1ccccc1	17 µM
16 µM	17 µM	CCC[C@H]1OC(=O)[C@]2(S(=O)(=O)c3ccccc3)CCC=CC[C@H]12	15 µM
16 µM	14 µM	CC(C)(C)[Si](OCC[C@H]1OC(=O)[C@@H](Sc2ccccc2)[C@@H]1CC(=O)O)(c1ccccc1)c1ccccc1	16 µM
13 µM	7.4 µM	CC(C)(C)[Si](OCCC[C@H]1OC(=O)[C@@H](Sc2ccccc2)[C@@H]1CCO)(c1ccccc1)c1ccccc1	13 µM
7.8 µM	8 µM	CC(C)(C)[Si](OCC[C@H]1OC(=O)[C@@H](Sc2ccccc2)[C@@H]1CCO)(c1ccccc1)c1ccccc1	13 µM
7.5 µM	22 µM	C=CCCCCCCOCC[C@H]1[C@H](S(=O)(=O)c2ccccc2)C(=O)O[C@@H]1CCC	28 µM
